The values that follow come from ChEMBL document CHEMBL1136743, “Design, synthesis, and biological evaluation of C9- and C2-substituted pyrazolo[4,3-e]-1,2,4-triazolo[1,5-c]pyrimidines as new A2A and A3 adenosine receptors antagonists” (J Med Chem, 2003).

The structures appear in SMILES notation.

Assay [1] addresses T1, Adenosine receptor A2b (Homo sapiens, UniProt P29275).
T1 sequence (P29275 whole entry): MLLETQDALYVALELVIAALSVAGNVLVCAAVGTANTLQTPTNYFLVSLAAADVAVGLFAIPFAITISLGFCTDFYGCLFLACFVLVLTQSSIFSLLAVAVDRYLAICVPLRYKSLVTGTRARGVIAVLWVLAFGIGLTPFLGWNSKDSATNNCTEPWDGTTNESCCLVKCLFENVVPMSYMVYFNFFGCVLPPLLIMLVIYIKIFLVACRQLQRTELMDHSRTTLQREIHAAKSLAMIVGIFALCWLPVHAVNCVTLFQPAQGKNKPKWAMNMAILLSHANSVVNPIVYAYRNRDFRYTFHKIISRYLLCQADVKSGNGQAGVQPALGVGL
Kind of assay: biochemical.
Description: (§1) Displacement of [3H]- DPCPX from human adenosine A2B receptor expressed in HEK293 cells

Assay [2] deals with T2, Adenosine receptor A3 (Homo sapiens, UniProt P0DMS8).
T2 sequence (P0DMS8 whole entry): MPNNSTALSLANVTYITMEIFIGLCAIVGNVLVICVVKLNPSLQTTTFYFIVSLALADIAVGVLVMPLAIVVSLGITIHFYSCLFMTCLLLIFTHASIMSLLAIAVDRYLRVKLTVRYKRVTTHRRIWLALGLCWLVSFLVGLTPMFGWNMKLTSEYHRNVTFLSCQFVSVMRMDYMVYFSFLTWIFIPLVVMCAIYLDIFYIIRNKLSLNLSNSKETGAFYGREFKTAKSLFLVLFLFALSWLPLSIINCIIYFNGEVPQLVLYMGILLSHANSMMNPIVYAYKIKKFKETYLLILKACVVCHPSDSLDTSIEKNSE
Kind of assay: biochemical.
Description: (§2) Displacement of [3H]- MRE 308F20 binding from human Adenosine A3 receptor expressed in CHO cells

The target in a further assay is T3, Adenosine receptor A1 (Homo sapiens, UniProt P30542).
T3 sequence (P30542 whole entry): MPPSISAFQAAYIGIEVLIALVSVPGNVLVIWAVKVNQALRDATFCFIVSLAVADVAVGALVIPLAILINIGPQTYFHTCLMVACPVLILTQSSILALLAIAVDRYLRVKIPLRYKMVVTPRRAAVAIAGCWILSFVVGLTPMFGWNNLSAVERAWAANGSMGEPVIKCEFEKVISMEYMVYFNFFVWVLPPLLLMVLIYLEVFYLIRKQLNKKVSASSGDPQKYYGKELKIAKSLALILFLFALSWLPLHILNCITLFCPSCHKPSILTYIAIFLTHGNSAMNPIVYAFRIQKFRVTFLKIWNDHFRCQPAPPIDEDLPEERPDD
Kind of assay: biochemical.

Assay [3] concerns the target T4, Adenosine receptor A2a (Homo sapiens, UniProt P29274). Kind of assay: biochemical.
Assay [4] addresses T1, Adenosine receptor A2b. Kind of assay: biochemical. This is another data set of the same source.
Description: as §1
Assay [5] deals with T4, Adenosine receptor A2a. Nature of the assay: biochemical. The source holds these as a separate data set.
For assay [6], the target named is T2, Adenosine receptor A3. The settings on record: cho.
Description: as §2
In assay [7] the target is T2, Adenosine receptor A3.
Assay [8] concerns the target T4, Adenosine receptor A2a.
Assay [9] has as its target T5, Adenosine receptor A2b (Rattus norvegicus, UniProt P29276).
T5 sequence (P29276 whole entry): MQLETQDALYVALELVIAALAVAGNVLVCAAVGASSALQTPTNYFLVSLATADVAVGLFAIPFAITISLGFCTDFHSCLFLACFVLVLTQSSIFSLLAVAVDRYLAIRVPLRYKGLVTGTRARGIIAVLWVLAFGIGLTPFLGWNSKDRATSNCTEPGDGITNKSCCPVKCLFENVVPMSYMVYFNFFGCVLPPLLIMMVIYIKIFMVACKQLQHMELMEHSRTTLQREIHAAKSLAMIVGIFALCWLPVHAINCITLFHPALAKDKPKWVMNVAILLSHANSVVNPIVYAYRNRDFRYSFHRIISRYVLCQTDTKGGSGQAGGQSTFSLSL

T4 sequence (P29274 whole entry): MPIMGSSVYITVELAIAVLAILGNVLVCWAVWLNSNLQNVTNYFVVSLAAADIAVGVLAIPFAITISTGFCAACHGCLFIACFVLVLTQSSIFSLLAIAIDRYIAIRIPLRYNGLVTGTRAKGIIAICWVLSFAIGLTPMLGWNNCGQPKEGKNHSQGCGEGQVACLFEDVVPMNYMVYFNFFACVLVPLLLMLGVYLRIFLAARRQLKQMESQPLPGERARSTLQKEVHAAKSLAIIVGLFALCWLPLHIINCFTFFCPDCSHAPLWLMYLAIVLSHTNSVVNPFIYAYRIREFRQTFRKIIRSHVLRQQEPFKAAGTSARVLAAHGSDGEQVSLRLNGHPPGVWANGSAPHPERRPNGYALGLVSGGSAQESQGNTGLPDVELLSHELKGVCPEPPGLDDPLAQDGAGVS
Description for Adenosine receptor A1: Displacement of [3H]- DPCPX binding at human Adenosine A1 receptor expressed in CHO cells

One may read the Ki as a measure of affinity in units of concentration, obtained from inhibition or displacement. The low end stands for tighter binding, the high end for weaker binding. In the case of `CSc1c2c(nc(NC(=O)Cc3ccc(CC(C)C)cc3)n3nc(-c4ccco4)nc23)nn1C`, the Ki at Adenosine receptor A2b [1] was 180 nM; on Adenosine receptor A3 [2], greater than 1000 nM.

Consider `Nc1nc2c(cnn2CCc2ccccc2)c2nc(-c3ccccc3)nn12`, for which the Ki was 235 nM on Adenosine receptor A1, greater than 1000 nM on Adenosine receptor A2a [3], greater than 1000 nM on Adenosine receptor A2b [4] and greater than 1000 nM on Adenosine receptor A3 [2].

For `CN1CCN(Cc2ccc(-c3nc4c5cnn(CCc6ccccc6)c5nc(N)n4n3)o2)CC1`, the Ki on Adenosine receptor A1, on Adenosine receptor A2a [5], at Adenosine receptor A2b [1] and on Adenosine receptor A3 [2] was greater than 1000 nM each time.

In the case of `CN1CCN(c2c3c(nc(N)n4nc(-c5ccco5)nc34)nn2C)CC1` [listing 1 of 2 here], the inhibition constant (Ki) on Adenosine receptor A3 [6] is greater than 1000 nM.

For the compound `Cn1nc2nc(N)n3nc(-c4ccco4)nc3c2c1Nc1ccc(O)cc1`, the inhibitory constant (Ki) on Adenosine receptor A2b [1] and at Adenosine receptor A2a [3] was greater than 1000 nM in each case.

What is called IC50 is the concentration at which inhibition is half-maximal. A higher IC50 goes with a need for much substance. `CCCSc1c2c(nc(N)n3nc(-c4ccco4)nc23)nn1C`: the results for the IC50 against Adenosine receptor A3 [7] and at Adenosine receptor A2a [8] were 852 nM and 14.8 nM, respectively.

The compound `CCNc1c2c(nc(N)n3nc(-c4ccco4)nc23)nn1C` gave a 50% inhibitory concentration (IC50) against Adenosine receptor A3 [7] of 103 nM.

`COc1ccc(NC(=O)Nc2nc3nn(C)c(SC)c3c3nc(-c4ccco4)nn23)cc1` displayed an IC50 against Adenosine receptor A3 [7] of 813 nM.

`Nc1nc2c(cnn2CCc2ccccc2)c2nc(-c3ccco3)nn12` [SCH-58261] came in with a Ki on Adenosine receptor A2b [9] greater than 1000 nM.

Take `CCNc1c2c(nc(NC(=O)Nc3ccc(OC)cc3)n3nc(-c4ccco4)nc23)nn1C` [listing 1 of 2 here]: the inhibition constant Ki on Adenosine receptor A2a [3] was 21 nM; on Adenosine receptor A3 [2] it was 14 nM.

On Adenosine receptor A3 [7], `CSc1c2c(nc(NC(=O)Cc3ccc4c(c3)OCO4)n3nc(-c4ccco4)nc23)nn1C` had a 50% inhibitory concentration (IC50) of 466 nM.

Take `CSc1c2c(nc(N)n3nc(-c4ccco4)nc23)nn1CCCc1ccccc1`: the inhibition constant (Ki) at Adenosine receptor A3 [2] was greater than 1000 nM.

As for `CSc1c2c(nc(N)n3nc(-c4ccc(CN5CCN(C)CC5)o4)nc23)nn1C`, the Ki at Adenosine receptor A1, at Adenosine receptor A2b [1], at Adenosine receptor A2a [3] and on Adenosine receptor A3 [2] was greater than 1000 nM in each case.

As for `COc1ccc(NC(=O)Nc2nc3nn(C)c(N4CCN(C)CC4)c3c3nc(-c4ccco4)nn23)cc1`, the inhibitory constant (Ki) at Adenosine receptor A2a [3] and on Adenosine receptor A3 [2] was greater than 1000 nM in each case.

As for `CSc1c2c(nc(N)n3nc(-c4ccco4)nc23)nn1C`, the IC50 against Adenosine receptor A3 [7] worked out at 188 nM; against Adenosine receptor A2a [8] it was 6.1 nM.

At Adenosine receptor A3 [2], `CN1CCN(c2c3c(nc(N)n4nc(-c5ccco5)nc34)nn2C)CC1` [listing 2 of 2 here] yielded an inhibitory constant (Ki) greater than 1000 nM.

As for `COc1ccc(CC(=O)Nc2nc3nn(C)c(SC)c3c3nc(-c4ccco4)nn23)cc1`, the inhibition constant Ki at Adenosine receptor A3 [2] is greater than 1000 nM.

For `CCNc1c2c(nc(NC(=O)Nc3ccc(OC)cc3)n3nc(-c4ccco4)nc23)nn1C` [listing 2 of 2 here], the IC50 at Adenosine receptor A3 [7] turned out to be 45 nM; against Adenosine receptor A2a [8], 61 nM.

As for `Nc1nc2c(cnn2CCc2ccccc2)c2nc(-c3ccc(CN4CCOCC4)o3)nn12`, the inhibition constant Ki at Adenosine receptor A1, on Adenosine receptor A2a [5], at Adenosine receptor A2b [1] and on Adenosine receptor A3 [2] was greater than 1000 nM in each case.
